Measured values from paper PMC11078216, “Discovery of potent and selective activity-based probes (ABPs) for the deubiquitinating enzyme USP30” (RSC Chemical Biology, 2024).

Key:
Experiment in all cases: ABPP chemical proteomics (LC-MS/MS) in HEK293T cells
Format in all cases: cell-based
[1] = molecular target: T1, AURKAIP1 (Homo sapiens, UniProt Q9NWT8); details: IMP-2586 labelling vs DMSO, 30 nM, 10 min, HEK293T (Table S4, Fig.5c)
T1 construct: endogenous in cells; host or cells: HEK293T
In short: (§1)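 Cellular target engagement was assessed by probe competition. Labelled HEK293T lysates (≥400 µg protein) underwent copper-catalysed click ligation for 1 h at room temperature. Biotinylated proteins were pulled down on NeutrAvidin agarose in 0.2% SDS/HEPES pH 8.0 for 3 h before LC-MS/MS quantification.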

[2] = test system: CAV1; details: IMP-2586 labelling vs DMSO, 30 nM, 10 min, HEK293T (Table S4, Fig.5c)
In short: as §1

[3] = molecular target: T2, CNP (Homo sapiens, UniProt P09543); details: IMP-2586 labelling vs DMSO, 30 nM, 10 min, HEK293T (Table S4, Fig.5c)
T2 construct: endogenous in cells; host or cells: HEK293T
In short: as §1

[4] = molecular target: T3, HSDL1 (Homo sapiens, UniProt Q3SXM5); details: IMP-2586 labelling vs DMSO, 30 nM, 10 min, HEK293T (Table S4, Fig.5c)
T3 construct: endogenous in cells; host or cells: HEK293T
In short: as §1

[5] = molecular target: T4, MDC1 (Homo sapiens, UniProt Q14676); details: IMP-2586 labelling vs DMSO, 30 nM, 10 min, HEK293T (Table S4, Fig.5c)
T4 construct: endogenous in cells; host or cells: HEK293T
In short: as §1

[6] = molecular target: T5, TMEM109 (Homo sapiens, UniProt Q9BVC6); details: IMP-2586 labelling vs DMSO, 30 nM, 10 min, HEK293T (Table S4, Fig.5c)
T5 construct: endogenous in cells; host or cells: HEK293T
In short: as §1

[7] = molecular target: T6, GET4 (Homo sapiens, UniProt Q7L5D6); details: IMP-2587 labelling vs DMSO, 30 nM, 10 min, HEK293T (Table S2, Fig.5a)
T6 construct: endogenous in cells; host or cells: HEK293T
In short: as §1

[8] = molecular target: T7, HMGCS1 (Homo sapiens, UniProt Q01581); details: IMP-2587 labelling vs DMSO, 30 nM, 10 min, HEK293T (Table S2, Fig.5a)
T7 construct: endogenous in cells; host or cells: HEK293T
In short: as §1

[9] = molecular target: T8, RPS8 (Homo sapiens, UniProt P62241); details: IMP-2587 labelling vs DMSO, 30 nM, 10 min, HEK293T (Table S2, Fig.5a)
T8 construct: endogenous in cells; host or cells: HEK293T
In short: as §1

[10] = molecular target: T9, ACTG1 (Homo sapiens, UniProt P63261); details: compound 1 out-competition with IMP-2587 labelling, HEK293T (Table S3, Fig.5b)
T9 construct: endogenous in cells; host or cells: HEK293T
In short: as §1

[11] = molecular target: T10, DCD (Homo sapiens, UniProt P81605); details: compound 1 out-competition with IMP-2587 labelling, HEK293T (Table S3, Fig.5b)
T10 construct: endogenous in cells; host or cells: HEK293T
In short: as §1

[12] = molecular target: T11, IMPDH2 (Homo sapiens, UniProt P12268); details: compound 1 out-competition with IMP-2587 labelling, HEK293T (Table S3, Fig.5b)
T11 construct: endogenous in cells; host or cells: HEK293T
In short: as §1

[13] = molecular target: T12, RPL34 (Homo sapiens, UniProt P49207); details: compound 1 out-competition with IMP-2587 labelling, HEK293T (Table S3, Fig.5b)
T12 construct: endogenous in cells; host or cells: HEK293T
In short: as §1

[14] = molecular target: T13, CLPTM1 (Homo sapiens, UniProt O96005); details: compound 3 out-competition with IMP-2586 labelling, HEK293T (Table S5, Fig.5d)
T13 construct: endogenous in cells; host or cells: HEK293T
In short: as §1

[15] = molecular target: T14, LUC7L3 (Homo sapiens, UniProt O95232); details: compound 3 out-competition with IMP-2586 labelling, HEK293T (Table S5, Fig.5d)
T14 construct: endogenous in cells; host or cells: HEK293T
In short: as §1

T7 sequence (Q01581 whole entry): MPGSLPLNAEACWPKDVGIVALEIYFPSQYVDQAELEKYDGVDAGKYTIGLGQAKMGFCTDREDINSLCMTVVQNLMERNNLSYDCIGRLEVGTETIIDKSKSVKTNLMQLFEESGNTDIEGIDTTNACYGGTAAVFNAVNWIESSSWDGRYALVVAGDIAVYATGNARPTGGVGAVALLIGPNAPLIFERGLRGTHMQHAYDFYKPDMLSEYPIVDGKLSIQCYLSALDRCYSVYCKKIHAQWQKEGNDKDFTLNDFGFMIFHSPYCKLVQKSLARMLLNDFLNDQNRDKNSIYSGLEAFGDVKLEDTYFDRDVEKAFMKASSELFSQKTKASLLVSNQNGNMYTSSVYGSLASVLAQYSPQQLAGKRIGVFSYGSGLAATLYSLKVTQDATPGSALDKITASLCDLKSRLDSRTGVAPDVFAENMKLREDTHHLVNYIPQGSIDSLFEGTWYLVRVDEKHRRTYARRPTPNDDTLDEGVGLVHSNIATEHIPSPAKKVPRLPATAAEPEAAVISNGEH
T13 sequence (O96005 whole entry): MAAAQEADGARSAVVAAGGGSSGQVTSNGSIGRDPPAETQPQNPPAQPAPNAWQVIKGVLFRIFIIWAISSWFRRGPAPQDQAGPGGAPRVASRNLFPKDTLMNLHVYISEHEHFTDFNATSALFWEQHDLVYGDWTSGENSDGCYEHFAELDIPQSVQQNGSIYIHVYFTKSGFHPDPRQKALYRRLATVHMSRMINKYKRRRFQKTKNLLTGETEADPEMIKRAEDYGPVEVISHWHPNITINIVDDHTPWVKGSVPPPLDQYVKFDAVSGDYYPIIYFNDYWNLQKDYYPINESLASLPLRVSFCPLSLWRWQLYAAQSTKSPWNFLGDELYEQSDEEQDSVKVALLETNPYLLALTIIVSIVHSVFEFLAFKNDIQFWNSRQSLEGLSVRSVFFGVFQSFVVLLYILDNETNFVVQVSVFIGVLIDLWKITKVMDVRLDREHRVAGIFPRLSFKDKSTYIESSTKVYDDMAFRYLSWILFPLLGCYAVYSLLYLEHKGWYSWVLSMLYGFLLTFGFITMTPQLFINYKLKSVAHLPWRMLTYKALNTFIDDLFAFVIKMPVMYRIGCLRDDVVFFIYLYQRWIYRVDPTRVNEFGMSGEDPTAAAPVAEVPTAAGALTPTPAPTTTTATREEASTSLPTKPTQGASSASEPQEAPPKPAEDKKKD
T5 sequence (Q9BVC6 34-243): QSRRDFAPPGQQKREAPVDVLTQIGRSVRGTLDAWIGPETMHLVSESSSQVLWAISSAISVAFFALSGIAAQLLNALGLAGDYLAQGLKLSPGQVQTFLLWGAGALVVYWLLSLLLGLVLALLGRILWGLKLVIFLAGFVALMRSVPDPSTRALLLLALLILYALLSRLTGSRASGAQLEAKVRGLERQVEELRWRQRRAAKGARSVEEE
T4 sequence (Q14676 whole entry): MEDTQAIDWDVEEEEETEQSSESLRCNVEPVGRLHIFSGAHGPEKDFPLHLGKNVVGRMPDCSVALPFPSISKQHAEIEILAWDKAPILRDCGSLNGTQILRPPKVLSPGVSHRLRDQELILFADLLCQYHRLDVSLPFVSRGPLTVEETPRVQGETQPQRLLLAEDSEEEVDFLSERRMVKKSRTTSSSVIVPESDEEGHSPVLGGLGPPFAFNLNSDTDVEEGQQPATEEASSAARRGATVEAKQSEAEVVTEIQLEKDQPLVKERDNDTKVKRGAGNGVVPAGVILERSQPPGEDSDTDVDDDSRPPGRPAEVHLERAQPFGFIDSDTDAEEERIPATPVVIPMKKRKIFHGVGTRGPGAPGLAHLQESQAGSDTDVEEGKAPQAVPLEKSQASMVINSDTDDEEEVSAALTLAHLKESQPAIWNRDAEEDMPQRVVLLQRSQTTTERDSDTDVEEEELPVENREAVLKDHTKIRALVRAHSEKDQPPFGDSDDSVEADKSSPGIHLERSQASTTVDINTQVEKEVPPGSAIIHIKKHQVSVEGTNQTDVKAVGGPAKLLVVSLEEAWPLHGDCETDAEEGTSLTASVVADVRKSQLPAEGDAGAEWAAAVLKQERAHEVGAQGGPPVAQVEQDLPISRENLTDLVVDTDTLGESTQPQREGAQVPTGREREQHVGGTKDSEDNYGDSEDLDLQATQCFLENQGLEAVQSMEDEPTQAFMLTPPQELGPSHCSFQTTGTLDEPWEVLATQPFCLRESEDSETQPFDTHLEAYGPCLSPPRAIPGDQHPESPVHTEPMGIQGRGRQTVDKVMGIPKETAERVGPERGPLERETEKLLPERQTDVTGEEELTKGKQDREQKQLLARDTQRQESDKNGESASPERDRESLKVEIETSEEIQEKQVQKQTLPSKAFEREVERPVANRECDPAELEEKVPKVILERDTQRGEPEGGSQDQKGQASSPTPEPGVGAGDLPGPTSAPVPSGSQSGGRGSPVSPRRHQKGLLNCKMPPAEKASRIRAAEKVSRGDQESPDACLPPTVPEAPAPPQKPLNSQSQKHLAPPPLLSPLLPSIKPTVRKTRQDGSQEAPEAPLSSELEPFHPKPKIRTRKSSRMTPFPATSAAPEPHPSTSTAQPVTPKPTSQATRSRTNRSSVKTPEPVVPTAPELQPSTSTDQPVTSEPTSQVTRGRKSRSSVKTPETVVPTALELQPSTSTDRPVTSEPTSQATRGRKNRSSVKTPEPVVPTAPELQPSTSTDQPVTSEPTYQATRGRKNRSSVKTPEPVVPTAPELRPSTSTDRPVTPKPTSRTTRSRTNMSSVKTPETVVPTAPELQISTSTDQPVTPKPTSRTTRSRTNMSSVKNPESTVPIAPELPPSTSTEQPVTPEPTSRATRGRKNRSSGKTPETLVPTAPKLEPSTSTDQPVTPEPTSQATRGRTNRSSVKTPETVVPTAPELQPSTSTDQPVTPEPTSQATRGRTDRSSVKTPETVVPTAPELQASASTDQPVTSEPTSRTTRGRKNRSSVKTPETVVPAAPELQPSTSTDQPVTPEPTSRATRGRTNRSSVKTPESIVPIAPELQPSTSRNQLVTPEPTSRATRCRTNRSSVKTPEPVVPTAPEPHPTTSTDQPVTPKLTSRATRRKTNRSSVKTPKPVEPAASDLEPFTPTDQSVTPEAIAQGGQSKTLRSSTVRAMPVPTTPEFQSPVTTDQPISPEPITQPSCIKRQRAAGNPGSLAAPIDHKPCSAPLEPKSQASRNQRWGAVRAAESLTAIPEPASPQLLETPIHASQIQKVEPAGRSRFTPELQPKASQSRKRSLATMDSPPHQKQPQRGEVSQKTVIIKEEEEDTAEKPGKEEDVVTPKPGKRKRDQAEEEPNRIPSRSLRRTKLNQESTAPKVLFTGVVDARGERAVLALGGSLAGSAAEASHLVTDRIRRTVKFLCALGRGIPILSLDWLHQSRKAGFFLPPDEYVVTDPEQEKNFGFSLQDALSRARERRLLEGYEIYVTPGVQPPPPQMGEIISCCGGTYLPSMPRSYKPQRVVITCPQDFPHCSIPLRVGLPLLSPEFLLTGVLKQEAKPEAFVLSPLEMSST
T14 sequence (O95232 whole entry): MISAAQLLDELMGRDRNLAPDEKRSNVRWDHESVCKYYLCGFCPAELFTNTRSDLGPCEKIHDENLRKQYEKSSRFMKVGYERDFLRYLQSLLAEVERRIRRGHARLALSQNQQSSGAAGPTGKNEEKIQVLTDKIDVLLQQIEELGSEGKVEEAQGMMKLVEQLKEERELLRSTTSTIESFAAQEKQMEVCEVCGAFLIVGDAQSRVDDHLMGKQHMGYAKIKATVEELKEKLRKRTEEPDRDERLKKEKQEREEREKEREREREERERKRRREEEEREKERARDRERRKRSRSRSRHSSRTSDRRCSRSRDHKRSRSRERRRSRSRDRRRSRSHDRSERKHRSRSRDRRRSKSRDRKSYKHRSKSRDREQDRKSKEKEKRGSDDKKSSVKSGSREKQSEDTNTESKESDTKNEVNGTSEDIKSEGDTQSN
T2 sequence (P09543 whole entry): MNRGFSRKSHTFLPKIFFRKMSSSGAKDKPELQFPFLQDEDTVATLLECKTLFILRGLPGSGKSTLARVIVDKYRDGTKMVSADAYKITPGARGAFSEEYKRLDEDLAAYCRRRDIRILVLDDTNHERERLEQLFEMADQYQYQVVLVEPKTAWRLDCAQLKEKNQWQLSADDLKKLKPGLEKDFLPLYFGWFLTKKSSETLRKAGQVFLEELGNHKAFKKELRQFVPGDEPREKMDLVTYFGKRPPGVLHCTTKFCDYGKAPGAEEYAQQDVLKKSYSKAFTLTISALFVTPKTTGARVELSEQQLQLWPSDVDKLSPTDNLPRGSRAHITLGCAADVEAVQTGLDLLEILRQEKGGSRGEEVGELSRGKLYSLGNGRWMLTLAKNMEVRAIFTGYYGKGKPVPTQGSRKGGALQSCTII
T3 sequence (Q3SXM5 whole entry): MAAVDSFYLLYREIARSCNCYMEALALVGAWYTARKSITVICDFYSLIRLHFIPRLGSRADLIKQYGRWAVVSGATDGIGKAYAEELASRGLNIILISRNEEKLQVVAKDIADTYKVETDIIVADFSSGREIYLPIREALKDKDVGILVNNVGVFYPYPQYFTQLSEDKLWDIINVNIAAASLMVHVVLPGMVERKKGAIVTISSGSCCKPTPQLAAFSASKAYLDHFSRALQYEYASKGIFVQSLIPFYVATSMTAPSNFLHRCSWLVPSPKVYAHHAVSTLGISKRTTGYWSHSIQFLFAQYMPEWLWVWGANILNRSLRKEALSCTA
T10 sequence (P81605 20-110): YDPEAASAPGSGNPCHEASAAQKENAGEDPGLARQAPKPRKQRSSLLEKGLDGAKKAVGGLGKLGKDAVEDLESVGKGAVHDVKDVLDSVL

SMILES: N#CN1CC[C@@H](NC(=O)c2cc(-c3ccccc3Oc3ccc(N=[N+]=[N-])cc3)n[nH]2)C1 [IMP-2586]
- Difference (log2 fold change of enrichment) [1]: 0.81
- Difference (log2 fold change of enrichment) ([2]; CAV1 (Caveolin)): -2.47
- Difference (log2 fold change of enrichment) ([2]; CAV1 (Caveolin-1)): -1.61
- Difference (log2 fold change of enrichment) [3]: -0.68
- Difference (log2 fold change of enrichment) [4]: 1.22
- Difference (log2 fold change of enrichment) [5]: 0.38
- Difference (log2 fold change of enrichment) [6]: -1.56

SMILES: C#Cc1cccc(-c2cc(NC(=O)CC3CCN(C#N)C3)on2)c1 (stereo not shown) [IMP-2587]
- Difference (log2 fold change of enrichment) [7]: 0.76
- Difference (log2 fold change of enrichment) [8]: 0.75
- Difference (log2 fold change of enrichment) [9]: -0.44

SMILES: N#CN1CC[C@H](CC(=O)Nc2cc(-c3cccc(Cl)c3)no2)C1 [compound 1, reference compound]
- Difference (log2 fold change of enrichment) [10]: -0.57
- Difference (log2 fold change of enrichment) [11]: -0.34
- Difference (log2 fold change of enrichment) [12]: -0.70
- Difference (log2 fold change of enrichment) [13]: -0.67

SMILES: N#CN1CC[C@@H](NC(=O)c2cc(-c3ccccc3Oc3ccccc3)n[nH]2)C1 [compound 3, reference compound]
- Difference (log2 fold change of enrichment) [14]: -1.18
- Difference (log2 fold change of enrichment) [15]: -0.51
